# Data from patent publication US9809553B2, “Isoquinoline compounds, a process for their preparation, and pharmaceutical compositions containing them” (LES LABORATOIRES SERVIER, priority 2014, dated 2017).
# Counter-ions that a name gives are not always drawn. Like-named read-outs stand apart in the source and are kept apart here.
# What was measured:
# [1] = tested on: aortic segments of the rat (contraction induced by PHE); assay: Functional test (rat aorta): vascular reactivity on aortic rings without endothelium contracted with phenylephrine; settings: aortic rings without endothelium contracted with PHE 10^-6 M, read-out: Relaxation (rat aorta + PHE), IC50
# Text: Functional Test (Rat Aorta) Study of Vascular Reactivity on Aortic Segments of the Rat. After anaesthesia of the animal, the thoracic aorta is removed and immediately placed in a physiological saline solution (PSS). The proximal thoracic aorta is cleaned of adherent conjunctive tissue and 4 aortic rings (3-4 mm) are cut. The endothelium is removed mechanically without damaging the smooth muscle cells. The rings without endothelium are placed in PSS medium in isolated organ baths maintained at 37° C. in the presence of carbogen. The isometric tension of the rings is recorded by means of a force sensor. At their optimum tension, the rings are subjected to an equilibration period during which the physiological medium is replaced regularly. The preparations are then contracted twice by means of a hyperpotassic solution (KCl 60 mM), each of the 2 contractions being followed by successive washings in order to return to the original tension. The absence of endothelium is verified after contraction by an al-adrenergic receptor agonist, phenylephrine (PHE, 10^−6M), followed by the addition of carbachol (10^−5M), a muscarinic receptor agonist, which induces a relaxation only in the presence of endothelium. The rings are then washed regularly with PSS for 60 minutes in order to remove the pharmacological agents. The rings are recontracted with PHE (10^−6M) and then, after stabilisation of the contraction, the product or its solvent is added in cumulative concentrations, 5 concentrations are tested: 10M^−8, 10^−7M, 10^−6M, 10M^−5 and 3×10^−5M (if the product is dissolved in DMSO) or 10^−4M (if H2O is the solvent of the product). The contractile response is obtained in milligrams (mg). The results are expressed by the mean±SEM of the contractile responses obtained on at least 2 rats. The variations in tension of each product are calculated as a percentage of the maximum contraction induced by PHE before the product is added, according to the formula: % contraction B(t)=[×(mg) tension(compound)B(t)/y (mg) maximum tension (PHE)B]×100. The concentration-response curves obtained are analysed and allow the IC50 value of each product to be determined (IC50: concentration of product necessary to inhibit 50% of the maximum contraction induced by PHE), the estimation of the IC50 value of the concentration-response curves being obtained by non-linear regression.
# [2] = tested on: arterial pressure of spontaneously hypertensive rats (SHR); assay: Evaluation on the arterial pressure in spontaneously hypertensive rats (SHR), telemetry; type: in vivo; settings: SHR rat, maximum change of arterial pressure relative to basal
# Description: The effect of the ROCK inhibitors was tested by the reduction of the arterial pressure (AP) that they induce in spontaneously hypertensive rats (SHR) after intravenous (i.v.) and/or oral administration. In summary, the SHRs were anaesthetised with 2% isoflurane, and a telemetry probe (PAC40, Data Science International) was implanted in the abdominal aorta to record the AP and a polyethylene catheter was implanted in the jugular vein for the i.v. administration. After recovery from the surgery (2 to 3 weeks), the AP was recorded continuously for 24 hours after administration of the ROCK inhibitors at doses of 1, 3, 10 and 30 mg/kg by the i.v. route and/or by the oral route. The effect on the AP was expressed as the percentage reduction relative to the basal arterial pressure before administration of the product.
# human ROCK1 = human ROCK1 (Homo sapiens, UniProt Q13464); assay: ROCK1 enzymatic test (LANCE, phosphorylation of Ulight-RRRSLLE (PLK) substrate); type: biochemical; settings: human recombinant enzyme, 1 μM ATP, 50 nM Ulight-RRRSLLE (PLK) substrate, 30 minutes at ambient temperature; read-out: ROCK1(h), IC50
# Chain of human ROCK1 (Q13464 whole entry): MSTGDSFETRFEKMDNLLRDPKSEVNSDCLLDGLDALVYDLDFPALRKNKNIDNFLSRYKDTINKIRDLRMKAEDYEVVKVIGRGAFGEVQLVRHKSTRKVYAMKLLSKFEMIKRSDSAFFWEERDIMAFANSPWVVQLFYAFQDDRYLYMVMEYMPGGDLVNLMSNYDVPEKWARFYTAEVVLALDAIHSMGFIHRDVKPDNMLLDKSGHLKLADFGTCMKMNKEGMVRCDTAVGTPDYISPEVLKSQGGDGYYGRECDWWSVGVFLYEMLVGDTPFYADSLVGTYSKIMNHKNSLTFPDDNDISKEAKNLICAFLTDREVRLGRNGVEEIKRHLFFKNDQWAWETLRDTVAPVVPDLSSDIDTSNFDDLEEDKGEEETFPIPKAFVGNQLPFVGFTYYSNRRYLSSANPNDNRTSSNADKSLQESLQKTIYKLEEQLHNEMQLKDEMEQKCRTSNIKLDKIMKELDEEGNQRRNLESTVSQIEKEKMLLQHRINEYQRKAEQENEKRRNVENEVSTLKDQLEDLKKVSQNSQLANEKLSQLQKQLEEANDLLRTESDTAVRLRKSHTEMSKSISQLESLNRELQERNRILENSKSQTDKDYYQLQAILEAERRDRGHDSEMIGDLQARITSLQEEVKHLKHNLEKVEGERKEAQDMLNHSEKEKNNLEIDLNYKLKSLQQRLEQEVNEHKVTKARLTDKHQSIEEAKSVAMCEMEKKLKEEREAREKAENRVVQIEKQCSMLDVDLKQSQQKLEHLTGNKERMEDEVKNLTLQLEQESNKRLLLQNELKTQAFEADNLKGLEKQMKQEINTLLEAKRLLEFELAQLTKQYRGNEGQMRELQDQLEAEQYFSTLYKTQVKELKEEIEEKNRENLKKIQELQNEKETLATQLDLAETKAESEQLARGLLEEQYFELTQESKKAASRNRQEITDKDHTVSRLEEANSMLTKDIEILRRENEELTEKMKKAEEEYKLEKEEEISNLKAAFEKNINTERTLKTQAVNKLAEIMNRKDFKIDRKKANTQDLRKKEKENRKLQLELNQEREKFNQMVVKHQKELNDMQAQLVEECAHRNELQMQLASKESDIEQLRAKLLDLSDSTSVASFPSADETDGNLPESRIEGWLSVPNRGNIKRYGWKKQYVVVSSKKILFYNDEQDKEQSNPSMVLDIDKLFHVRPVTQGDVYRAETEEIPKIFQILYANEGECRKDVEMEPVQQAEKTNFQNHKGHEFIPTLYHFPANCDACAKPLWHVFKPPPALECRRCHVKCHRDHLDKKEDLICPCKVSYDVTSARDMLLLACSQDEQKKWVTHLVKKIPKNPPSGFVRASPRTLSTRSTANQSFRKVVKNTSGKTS
# Description: Evaluation of the effects of compounds on human ROCK1 activity quantified by measuring the phosphorylation of the substrate Ulight-RRRSLLE (PLK) using a human recombinant enzyme and the LANCE® detection method.
# The test compound, the reference compound or water (control) is mixed with the enzyme (8.2 ng) in a buffer comprising 40 mM Hepes/Tris (pH 7.4), 0.8 mM EGTA/Tris, 8 mM MgCl2, 1.6 mM DTT and 0.008% Tween 20.
# The reaction is then started by adding 50 nM of Ulight-RRRSLLE (PLK) substrate and 1 μM of ATP, and the mixture is incubated for 30 minutes at ambient temperature. For the basal control measurements, the enzyme is excluded from the reaction mixture.
# After the incubation, the reaction is stopped by adding 13 mM of EDTA. After 5 minutes, the anti-phospho-PLK antibody labelled with europium chelate is added. After a further 60 minutes, the fluorescence transfer is measured at lex=337 nm, lem=620 nm and lem=665 nm using a microplate reader (Envision, Perkin Elmer). The enzymatic activity is determined by dividing the signal measured at 665 nm by that measured at 620 nm (ratio). The results are expressed in the form of a percentage inhibition of the control enzymatic activity. The standard reference inhibition compound is staurosporine, which is tested in each experiment at several concentrations in order to obtain an inhibition curve on the basis of which the value of the IC50 (concentration that induces 50% inhibition) is calculated.
# [3] = IV 3 mg/kg, read-out: SHR rat ΔAP % max, IV 3 mg/kg
# [4] = PO 3 mg/kg, read-out: SHR rat ΔAP % max, PO 3 mg/kg
Compound,IC50 [1],IC50 (human ROCK1),"change in vivo at 3 mg/kg [2, 3]","change in vivo at 3 mg/kg [2, 4]"
"C[C@H](N)c1cc(F)c(C(O)c2cccc3cnccc23)c(F)c1 (single isomer, unassigned; enantiomer 1) [Product P21]",1000 nM,–,–,–
"CC(N)c1cc(F)c(C(=O)c2cccc3cnccc23)c(F)c1 (stereo not drawn) [Product P6, [4-(1-Aminoethyl)-2,6-difluorophenyl](isoquinolin-5-yl)methanone dihydrochloride]",200 nM,–,-73.4%,-35.6%
"CC(N)c1cc(F)c(Cc2cccc3cnccc23)c(F)c1 (stereo not drawn) [Product P19, 1-[3,5-Difluoro-4-(isoquinolin-5-ylmethyl)phenyl]ethanamine dihydrochloride]",230 nM,63 nM,-39.6%,–
"COc1c(C(C)N)ccc(C(=O)c2cccc3c(=O)[nH]ccc23)c1F (stereo not drawn) [Product P42, 5-[4-(1-Aminoethyl)-2-fluoro-3-methoxybenzoyl]isoquinolin-1(2H)-one hydrochloride]",200 nM,9.6 nM,-59.9%,-12.3%
"CC(NCCO)c1cc(F)c(C(=O)c2cccc3c(=O)[nH]ccc23)c(F)c1 (stereo not drawn) [Product P48, 5-(2,6-Difluoro-4-{1-[(2-hydroxyethyl)amino]ethyl}benzoyl)isoquinolin-1(2H)-one hydrochloride]",150 nM,7.45 nM,-67.3%,-29.2%
"C[C@@H](N)c1ccc(F)c(C(=O)c2cccc3c(=O)[nH]ccc23)c1F [Product P56, 5-{3-[(1R)-1-Aminoethyl]-2,6-difluorobenzoyl}isoquinolin-1(2H)-one hydrochloride]",150 nM,16.5 nM,-54.7%,–
"N[C@@H]1CCc2cc(F)c(C(=O)c3cccc4c(=O)[nH]ccc34)c(F)c21 [Product P59, 5-{[(3R)-3-Amino-4,6-difluoro-2,3-dihydro-1H-inden-5-yl]carbonyl}isoquinolin-1(2H)-one hydrochloride]",550 nM,1.95 nM,-40.3%,–
"C[C@@H](N)c1ccc(C(=O)c2cccc3c(=O)[nH]ccc23)c2c1OCCO2 [Product P61, 5-({8-[(1R)-1-Aminoethyl]-2,3-dihydro-1,4-benzodioxin-5-yl}carbonyl)isoquinolin-1(2H)-one hydrochloride]",170 nM,5.35 nM,-59%,–
"O=C(c1c(F)cc(C2CCCCN2)cc1F)c1cccc2c(=O)[nH]ccc12 (stereo not drawn) [Product P75, 5-[2,6-Difluoro-4-(piperidin-2-yl)benzoyl]isoquinolin-1(2H)-one hydrochloride]",200 nM,10.4 nM,-49.8%,-12.4%
"NC(CC1CCCCC1)c1cc(F)c(C(=O)c2cccc3c(=O)[nH]ccc23)c(F)c1 (stereo not drawn) [Product P129, 5-[4-(1-Amino-2-cyclohexylethyl)-2,6-difluorobenzoyl]isoquinolin-1(2H)-one hydrochloride]",2000 nM,20.5 nM,-30.2%,-18.4%
"NCC1CCOc2c(C(=O)c3cccc4c(=O)[nH]ccc34)cccc21 (stereo not drawn) [Product P139, 5-{[4-(Aminomethyl)-3,4-dihydro-2H-chromen-8-yl]carbonyl}isoquinolin-1(2H)-one hydrochloride]",2000 nM,87.5 nM,–,–

# Compounds with a lower IC50 [1], results first:
IC50 [1],IC50 (human ROCK1),Compound,"change in vivo at 3 mg/kg [2, 3]","change in vivo at 3 mg/kg [2, 4]"
100 nM,5 nM,"C[C@@H](N)c1ccc(C(=O)c2cccc3c(=O)[nH]ccc23)c2c1CCCO2 [Product P45, 5-({5-[(1R)-1-Aminoethyl]-3,4-dihydro-2H-chromen-8-yl}carbonyl)isoquinolin-1(2H)-one hydrochloride]",-60.6%,-24%
100 nM,5.4 nM,"Cc1c[nH]c(=O)c2cccc(C(=O)c3c(F)cc([C@@H](C)N)cc3F)c12 [Product P50, 5-{4-[(1R)-1-Aminoethyl]-2,6-difluorobenzoyl}-4-methylisoquinolin-1(2H)-one hydrochloride]",-58%,-16.8%
70 nM,3.85 nM,"NC1CCc2c1cc(F)c(C(=O)c1cccc3c(=O)[nH]ccc13)c2F (stereo not drawn) [Product P58, 5-[(1-Amino-4,6-difluoro-2,3-dihydro-1H-inden-5-yl)carbonyl]isoquinolin-1(2H)-one hydrochloride]",-65.1%,-52.7%
50 nM,8.7 nM,"CC(C)(N)c1cc(F)c(C(=O)c2cccc3c(=O)[nH]ccc23)c(F)c1 [Product P27, 5-[4-(2-Aminopropan-2-yl)-2,6-difluorobenzoyl]isoquinolin-1(2H)-one hydrochloride]",-69%,-54%
40 nM,6.78 nM,"Cc1cc([C@@H](C)N)ccc1C(=O)c1cccc2c(=O)[nH]ccc12 [Product P47, 5-{4-[(1R)-1-Aminoethyl]-2-methylbenzoyl}isoquinolin-1(2H)-one hydrochloride]",-62.7%,-26.4%
33 nM,5.87 nM,"C[C@@H](N)c1cc(F)c(C(=O)c2cccc3cnccc23)c(F)c1 [Product P9, {4-[(1R)-1-Aminoethyl]-2,6-difluorophenyl}(isoquinolin-5-yl)methanone dihydrochloride]",-67%,-53.7%
14 nM,4.2 nM,"CC(N)c1cc(F)c(C(=O)c2cccc3c(O)nccc23)c(F)c1 (stereo not drawn) [Product P17, [4-(1-Aminoethyl)-2,6-difluorophenyl](1-hydroxyisoquinolin-5-yl)methanone hydrochloride]",-72.8%,-56.6%
10 nM,23 nM,"CC(C)(N)c1cc(F)c(C(=O)c2cccc3cnccc23)c(F)c1 [Product P24, [4-(2-Aminopropan-2-yl)-2,6-difluorophenyl](isoquinolin-5-yl)methanone dihydrochloride]",-68.2%,-52.5%
